In paper PMC12495443, “Developing inhibitors of the guanosine triphosphate hydrolysis accelerating activity of Regulator of G protein Signaling-14 [drawing 1]” (The Journal of Biological Chemistry, 2025):
Where a chain is given by its changes, count along the chain named. “Also recorded” adds a separate entry of the source. Like-named read-outs stand apart in the source and are kept apart here.

How the values were obtained:
[1] = target: T1, human RGS12 RGS-box (wild-type) (Homo sapiens, UniProt O14924); assay: Transcreener GDP RGScreen fluorescence polarization assay of RGS12 RGS-box GAP activity on Gαi1(DM); format: biochemical; conditions: wild-type RGS12 RGS-box GAP activity, Gαi1(DM), read-out: RGS12 pIC50 (converted)
T1 construct: human RGS12 RGS-box (aa 695–843 of UniProt O14924); host or cells: E. coli
T1 sequence (O14924 695-843): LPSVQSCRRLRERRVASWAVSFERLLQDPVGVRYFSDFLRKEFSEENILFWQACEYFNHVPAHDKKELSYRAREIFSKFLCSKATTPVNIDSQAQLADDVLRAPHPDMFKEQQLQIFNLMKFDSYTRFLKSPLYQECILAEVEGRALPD
Excerpt: (§1) We previously described work with BellBrook Labs creating the Transcreener GDP RGScreen fluorescence polarization assay of steady-state GTP hydrolysis, leveraging a double point-mutant in the Gα enzyme to make GTP hydrolysis, rather than GDP (product) release, the rate-limiting step for multiple rounds of GTP conversion ([57], [59]). […] Titrating inputs of the double point-mutant (“DM”) Gαi1 and RGS-box recombinant proteins (Fig. S2, B and C) established a robust, medium-throughput assay for evaluating potential RGS14 and RGS12 inhibitors, with “assay quality” Z′ scores ([60]) above 0.76 for each target (Fig. S2D).
(§2) Reagents and protocols for the fluorescence anisotropy-based Transcreener GDP RGScreen assay using a rate-altered, double point-mutant, recombinant Gαi1 protein have been extensively described previously ([43], [44]); reactions were always performed so that total GTP converted over the time course was consistently less than 10% of reaction maximum input. Specific methods for its application in assessing RGS14 and RGS12 GAP activity are summarized as follows. Open-reading frames (ORFs) encoding wild-type versions of the human RGS14 RGS-box (aa 46–195 of UniProt O43566) and human RGS12 RGS-box (aa 695–843 of UniProt O14924) were each sub-cloned in-frame with an N-terminal hexahistidine (His6) expression tag in the plasmid pET30a, expressed in E. coli cultures, and then purified by nickel-nitriloacetate (Ni-NTA) and size-exclusion (Superdex 200) column chromatographies by GenScript using previously described methods ([35]). These recombinant His6-tag fusion proteins were stored at −80 °C in storage buffer (150 mM NaCl, 50 mM Tris-HCl pH 8.0, 10% glycerol) before thawing and use. Cysteine-less versions were similarly produced by ORF site-directed mutagenesis: for RGS14, codons for cysteine residues 47 and 130 (numbered as in PDB id 2JNU) were replaced with serine codons; for RGS12, codons for cysteines 4, 51, 78, and 134 (numbered in relation to PDB id 2EBZ) were replaced with serine codons. Use of Transcreener GDP-detection reagents to assess compound inhibition of Naegleria fowleri Gα7 protein GTPase activity ([83]) has previously been described ([84]).

[2] = Single-dose pharmacokinetic study, plasma and brain by LC-MS/MS; format: in vivo, male Swiss-Webster mice
Method: Single-dose pharmacokinetic (PK) studies were conducted under IACUC-approved protocols of the UNTSCP Preclinical Services laboratory at the University of North Texas Health Science Center. Male Swiss-Webster (CFW) mice (∼30 g; Charles River) were used in both studies, housed in groups of three per cage with ad libitum access to food and water and acclimated for a minimum of 3 days prior to dosing. Each compound was evaluated in a single-dose, time-course design using three mice per time point across seven collection points (0.25, 0.5, 1, 2, 4, 8, and 24 h post-dose). For Z56944652, mice received a single intraperitoneal (IP) dose of 10 mg/kg (0.2 ml at 1.5 mg/ml). At each designated time point, mice were euthanized via CO2 inhalation, and blood was collected by cardiac puncture for plasma isolation (K2-EDTA tubes). Brains were aseptically removed, flash-frozen, and stored at −80 °C. For Z55628018, due to poor detection in preliminary studies, the protocol was modified to enhance systemic exposure. Mice were pre-dosed orally with 50 mg/kg of the pan-CYP inhibitor 1-aminobenzotriazole (ABT; ref. ([67])) 2 h prior to administration of Z55628018. The compound was then administered via IP injection at a single dose of 30 mg/kg (0.2 ml at […]). Sample collection and processing procedures were identical to those described above for Z56944652.
LC-MS/MS analyses were performed at UNTHSC using an Agilent 1260 Infinity HPLC system coupled to an Agilent 6460 Triple Quadrupole mass spectrometer equipped with Jet Stream electrospray ionization (ESI) in positive ion mode. Separation was carried out on a Poroshell 120 EC-C18 column (50 × 3.0 mm, 2.7 μm particle size) maintained at 30 °C, with a mobile phase consisting of 0.1% formic acid in water (A) and 0.1% formic acid in acetonitrile (B) under a standard gradient elution at a flow rate of 0.5 ml/min. The injection volume was 2 μl. Multiple reaction monitoring (MRM) transitions were optimized for each compound: Z56944652 was detected at m/z 353.1 → 227/132/126, and Z55628018 at m/z 391 → 134.8/247.9/132/121. The internal standard, carbamazepine, was monitored at m/z 237.2 → 167. Plasma samples (30–40 μl) were extracted with 1000 to 1200 μl of either acetonitrile or a 50:50 acetonitrile:methanol mixture containing carbamazepine (150–500 ng/ml), followed by vortexing, sonication, centrifugation, and supernatant collection for injection. Brain samples were homogenized in organic solvent (2 ml per 0.5 g tissue), vortexed, centrifuged, and processed using the same analytical workflow. Matrix-matched calibration curves were prepared using blank plasma or brain extract and validated over appropriate dynamic ranges: 0.09 to 46 μg/ml (plasma) and 0.547 to 70 ng/ml (brain) for Z56944652; 0.1 to 12.5 μg/ml (plasma) and 0.1 to 3.13 ng/ml (brain) for Z55628018. […] Retention times were 5.0 ± 0.01 min for Z56944652 and 3.3 ± 0.01 min for Z55628018, with the internal standard eluting at 4.0 ± 0.02 min.

[3] = target: T2, human RGS14 RGS-box (wild-type) (Homo sapiens, UniProt O43566); assay: Transcreener GDP RGScreen fluorescence polarization assay of RGS14 RGS-box GAP activity on Gαi1(DM); format: biochemical; conditions: for Ratio (RGS14 pIC50 / RGS12 pIC50): values > 1.0 reflect RGS14 selectivity; for IC50: Transcreener GDP RGScreen
T2 construct: human RGS14 RGS-box (aa 46–195 of UniProt O43566); host or cells: E. coli
T2 sequence (O43566 46-195): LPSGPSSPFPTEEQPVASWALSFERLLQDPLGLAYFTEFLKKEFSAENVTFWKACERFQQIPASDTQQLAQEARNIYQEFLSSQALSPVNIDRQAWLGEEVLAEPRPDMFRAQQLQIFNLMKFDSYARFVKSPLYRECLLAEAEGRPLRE
Excerpt: as §1, §2

[4] = system: THP-1 cell line; assay: Cytotoxicity assays (CytoTox-Glo, CytoTox 96); format: cell-based; conditions: THP-1 cells, overnight, CytoTox-Glo and CytoTox 96
Method: To evaluate cellular toxicity of active compounds, we employed the immortalized human monocytic THP1-Dual cell line (InvivoGen) in two orthogonal cytotoxicity assays: ATP-dependent luminescence (CytoTox-Glo) and colorimetric lactate dehydrogenase (LDH) release (CytoTox 96). For each assay, compounds were serially diluted 2-fold starting at 250 μM and added to 96-well flat-bottom tissue culture plates (Thermo Scientific Nunc, Cat# 165306). THP1-Dual cells were then seeded at 20,000 to 30,000 cells per well in 100 μl RPMI 1640 media supplemented with 10% fetal bovine serum (Gibco). Plates were gently mixed and incubated overnight at 37 °C in a humidified 5% CO2 incubator. For the CytoTox-Glo assay (Promega, Cat# G9291), 50 μl of assay reagent was added to each well. Plates were mixed briefly, sealed, and incubated at room temperature for 15 min before reading luminescence on a TECAN Infinite M1000 Pro plate reader to quantify dead-cell signal. Subsequently, 50 μl of a digitonin-containing lysis solution was added to each well, followed by a second luminescence read after 15 min to assess total cell content. Percent cytotoxicity was calculated per manufacturer instructions. For the CytoTox 96 Non-Radioactive Cytotoxicity Assay (Promega, Cat# G1780), after overnight compound treatment, LDH release into the culture medium was measured by adding the provided substrate mix. Absorbance was read at 490 or 492 nm within 1 h of adding the stop solution. Assay optimization and data normalization were conducted according to the manufacturer’s technical manual.

[5] = target: T3, cysteine-less RGS14 RGS-box protein (Homo sapiens, UniProt O43566, C100S/C183S); assay: Transcreener GDP RGScreen assay with cysteine-less RGS14 RGS-box; format: biochemical; conditions: compared with wild-type RGS14 RGS-box
T3 construct: human RGS14 RGS-box (aa 46–195 of UniProt O43566); host or cells: E. coli
T3 sequence (O43566 46-195 C100S/C183S): T2 sequence (O43566 46-195) with C55S, C138S
Excerpt: Given the earlier experience with screening hit CCG-4986 being a covalent modifier of RGS4 cysteine residues ([35]), we sought to exclude protein-thiol reactivity as a potential mechanism of action of the active compounds derived from the AtomNet virtual screening effort ([55]) and SAR campaign follow-ups. To address this possibility and screen out thiol-reactive hits, cysteine-lacking versions of recombinant proteins spanning the RGS-boxes of RGS14 and RGS12 were purified from E. coli cultures.
Reagents and protocols for the fluorescence anisotropy-based Transcreener GDP RGScreen assay using a rate-altered, double point-mutant, recombinant Gαi1 protein have been extensively described previously ([43], [44]); reactions were always performed so that total GTP converted over the time course was consistently less than 10% of reaction maximum input. Specific methods for its application in assessing RGS14 and RGS12 GAP activity are summarized as follows. Open-reading frames (ORFs) encoding wild-type versions of the human RGS14 RGS-box (aa 46–195 of UniProt O43566) and human RGS12 RGS-box (aa 695–843 of UniProt O14924) were each sub-cloned in-frame with an N-terminal hexahistidine (His6) expression tag in the plasmid pET30a, expressed in E. coli cultures, and then purified by nickel-nitriloacetate (Ni-NTA) and size-exclusion (Superdex 200) column chromatographies by GenScript using previously described methods ([35]). […]
Supplementary Figure S5. […] (A,B) Recombinant, cysteine residue-lacking (“-cys”) RGS14 RGS-box protein (panel A) and cysteine residue-lacking RGS12 RGS-box protein ([…]) were both observed, in a concentration-dependent fashion (indicated in ng/µL by color), to increase steady-state GDP production by 0.5 ng/µL Gai1(DM) protein in a 20 µL final reaction volume, as measured by the Transcreener® GDP-detection RGScreen™ assay and detected by the change in polarization (ΔmP) at each indicated time point (“enz” = Gai1(DM) protein a.k.a. […]

[6] = wild-type RGS14 RGS-box GAP activity, Gαi1(DM), read-out: RGS14 pIC50 (converted)

SMILES: C1=C(c2cc3ccccc3o2)Nn2c(nnc2C2COc3ccccc3O2)S1 (stereo not shown) [Z55628018, 6-(1-benzofuran-2-yl)-3-(2,3-dihydro-1,4-benzodioxin-2-yl)-5H-[1,2,4]triazolo[3,4-b][1,3,4]thiadiazine]
- IC50 [1]: 5.75 µM
- brain tissue concentration ([2]; 30 mg/kg IP after 50 mg/kg oral 1-aminobenzotriazole, any time point): No measurable concentrations; also recorded: undetectable
- concentration at 1 h ([2]; male, Swiss-Webster (CFW), mouse, plasma, intraperitoneal, 30 mg/kg IP after 50 mg/kg oral 1-aminobenzotriazole, one of three mice, 1-h time point): 170 ng/mL
- Ratio (RGS14 pIC50 / RGS12 pIC50) [3]: 0.92
- IC50 [3, 6]: 14.5 µM
- cytotoxicity [4]: Neither triazolothiadiazine derivative was observed to induce significant cell death

SMILES: CN1C(=O)[C@@]23C[C@]4([C@]56C[C@@]78SS[C@@](CO)(C(=O)N7[C@H]5Nc5ccccc56)N(C)C8=O)c5ccccc5N[C@@H]4N2C(=O)[C@]1(CO)SS3 [chaetocin, reference compound]
- IC50 ([3]; wild-type RGS14 RGS-box, read-out: IC50 against RGS14 RGS-box GAP activity): 0.32 µM
- inhibitory activity on cysteine-free RGS14 RGS-box (in words) [5]: largely lost

SMILES: COc1ccccc1C1=CSc2nnc(COc3ccccc3)n2N1 [Z56944652, 6-(2-methoxyphenyl)-3-(phenoxymethyl)-5H-[1,2,4]triazolo[3,4-b][1,3,4]thiadiazine]
- IC50 [1]: 3.39 µM
- time of peak brain level ([2]; 10 mg/kg IP single dose, mice): 1 h
- peak brain level ([2]; 10 mg/kg IP single dose, mice, 1 h post-dose): ~20 ng/g tissue
- peak CNS level (mean ± SD) ([2]; 10 mg/kg IP, three Swiss Webster mice, at 1 h): 19.5 ± 0.3 ng/gram brain tissue
- Kp ([2]; male, Swiss-Webster (CFW), mouse, brain, 10 mg/kg IP, throughout the measured time course, read-out: brain-to-plasma concentration ratio (Kp)): ~1
- Ratio (RGS14 pIC50 / RGS12 pIC50) [3]: 0.86
- IC50 [3, 6]: 19.1 µM
- cytotoxicity [4]: Neither triazolothiadiazine derivative was observed to induce significant cell death
